Source: patent publication US5759768A, “Assays for factors affecting circularization of DNA, assays for factors affecting DNA integration, factors, and uses thereof” (priority 1995, dated 1998)

What was measured:
[1] = tested on: purified linear viral DNA; test: Circularization of purified linear viral DNA in cytoplasmic extracts of uninfected SupT1 cells; assay type: biochemical, HIV-1; conditions: 1 mM, 37° C., 45 min
Procedure: Further evidence of a role for host proteins in the formation of the 1-LTR and simple 2-LTR circular forms of viral DNA was obtained by testing the ability of uninfected cell extracts to mediate the circularization of purfied viral DNA. Linear viral DNA was prepared from cytoplasmic extracts of uninfected cells by SDS-proteinase K treatment and phenol extraction. The purfied DNA was added to cytoplasmic extracts prepared form uninfected SupT1 cells, in the presence or absence of added ATP.
Linear viral DNA was purified from cytoplasmic extracts of cells 4 hours post-infection as described above. In FIG. 22, a purified linear viral DNA was added to cytoplasmic extracts from uninfected SupT1 cells and incubated at 37° C. for 45 minutes. The uninfected SupT1 cells used for the preparation of extracts were either untreated (lanes 3-11) or cultured in the presence of 10 ng/ml phorbol 12-myristate 13-acetate for six hours prior to extraction (lane 2). […] Lanes 2-11: reaction products following incubation of purified linear viral DNA in uninfected extracts containing 1 mM ATP (lanes 2 and 3), nothing added (lane 4), 1 mM dATP (lane 5), 1 mM UTP (lane 6), 1 mM CTP (lane 7), 1 mM GTP (lane 8), 1 mM ATPγS (lane 9), or 1 mM ADP (lane 10). Lane 11: uninfected SupT1 cell extract was treated with proteinase K for 10 minutes at 37° C., then linear viral DNA was added and incubation continued for 45 minutes. In FIG. 23, lanes 1, 2, 4 and 5: purified linear viral DNA was incubated with T4 DNA ligase (lane 1), T4 polynucleotide kinase and T4 DNA ligase (lane 2), Klenow fragment of E. coli DNA polymerase I and T4 DNA ligase […], or Klenow fragment, T4 polynucleotide kinase, and T4 DNA ligase (lane 4). Lanes 3 and 6: in vitro circularization reaction products generated in cell extracts, included as size standards. Lane 3: cytoplasmic extracts from infected cells were incubated with […] for 45 minutes; lane 6: purified linear viral DNA was incubated with cytoplasmic extract from uninfected SupT1 cells in the presence of 1 mM ATP for 45 minutes. The possibility that a host DNA ligase was responsible for the formation of the simple 2-LTR circles was examined by testing the ability of phage T4 ligase to catalyze the circularization of linear viral DNA. […] Restriction endonuclease analysis of the reaction products formed in the presence of both Klenow fragment and T4 DNA ligase confirmed the formation of new 2-LTR junctions (not shown). […] This observation is consistent with previous reports that linear viral DNA prepared from cells infected with the murine leukemia virus [Fujiwara and Mizuuchi, Cell, 54:497-504 (1988) and HIV-1 [Pauza, Virology, 179:886-887 (1990)] consists of a mixture of molecules that are either blunt-ended or recessed by two nucleotides at each 3'-terminus. The removal of the two terminal nucleotides is mediated by the viral integrase as a necessary step in the process of integration [Roth et al., Cell 58: 47-54 (1989)]. […] This would explain the requirement of DNA polymerase for the subsequent joining of the ends of viral DNA by DNA ligase.

[2] = tested on: linear viral DNA (circularization); assay type: biochemical, HIV-1
Procedure: The chronically HIV-1 infected Molt IIIB human T cell line (HTLV IIIB virus strain) was the source of virus for cell-free infections. This human T cell line constitutively produces a low level of the HTLV-111B strain of HIV-1. Culture supernatant containing a high concentration of virus was prepared by incubating 300×10^6 Molt IIIB cells in 50 ml fresh RPMI 1640 medium containing 20% fetal calf serum and 10 ng of phorbol 12-myristate 13-acetate per ml for 20-24 hours. […] Cytoplasmic extracts (3 ml) were prepared 4-4.5 hours post-infection, by a modification of the procedure of Brown et al., Cell 49: 342-356 (1987).
At specified times after infection, cells were washed twice with buffer K (20 mM Hepes, pH 7.4, 150 mM KCl, 5 mM MgCl2, 1 mM dithiothreitol, […]) and then lysed at a concentration of 33×10^6 cells per ml in the same buffer containing 0.025% digitonin or 0.025% Triton X-100. Cells were extracted for 10 minutes at room temperature, and the lysate was centrifuged at 1000×g for 3 minutes, and is referred to as "cytoplasmic extract". Cytoplasmic extract was the source of viral DNA for analyses in the assays described below. The pellet from the initial low-speed centrifugation contained cell debris and intact nuclei and is called the "nuclear pellet". Cell extracts from uninfected SupT1 cells were prepared in the same manner.
Viral DNA present in cytoplasmic extracts was deproteinated by incubation with proteinase K (1 mg/ml)/10 mM EDTA/0.5% SDS for 1 hour at 55° C. Samples were extracted successively with phenol/chloroform [1:1 (vol/vol)] and chloroform. DNA was ethanol-precipitated, washed with 70% ethanol, resuspended in 10 mM Tris.HCI (pH 7.4), and treated with RNase A (20 μpg/ml)for 1 hour at […]. before analysis by agarose gel electrophoresis and Southern blotting.
DNA samples were layered on 0.8% agarose gels and electrophoresed at 1 V/cm for 15 hour in Tris/acetate/EDTA buffer. After electrophoresis, DNA was blotted by capillary action onto nitrocellulose (0.45 μm, Schleicher & Schuell).
Cell extracts were prepared from cells four to five hours after infection with HIV-1, using the above-described methods to yield fully functional viral preintegration complexes. […] In all cases, a HIV-1 LTR-containing DNA fragment was used as a hybridization probe. Therefore, only LTR-containing DNA fragments are detected. […] Lane 5: Unintegrated viral DNA prepared by Hirt extraction of SupT1 cells infected 24 hours earlier with concentrated HIV-1. […] Viral DNA was purified from extracts incubated with 1 mM ATP for 15 minutes (lanes 1 and 4), with 1 mM ATP for 45 minutes (lanes 3 and 6), or with 1 mM ATPγS for 45 minutes (lanes 2 and 5). Lanes 1-3: uncut viral DNA; lanes 4-6: viral DNA was cut with SalI prior to electrophorosis. Lane 7: linear viral DNA, prepared from untreated extracts was digested with SalI prior to electrophorosis. Lane 8: unintegrated viral DNA prepared by Hirt extraction of infected cells, as described with respect to FIG. 14, digested with SalI prior to electrophoresis. […] Lanes 1-3. Viral DNA prepared from extracts treated with 1 mM ATP for 15 minutes, 30 minutes and 45 minutes, respectively. Lane 4: Viral DNA prepared from extract treated with 1 mM ATPγS for 45 minutes. Lanes 5-7: products of reactions shown in lanes 1-3, respectively, digested with SalI and PstI prior to electrophoresis. Lane 8: SalI, PstI digestion of viral DNA prepared from extract treated with 1 mM ATP for 90 minutes. Lane 9: SalI, PstI digestion of reaction products shown in lane 4. Lane 10: SalI, PstI digestion of unintegrated viral DNA prepared by Hirt extraction of infected cells.

Compound	1-LTR circles from purified linear viral DNA [1]	2-LTR circles from purified linear viral DNA [1]	circularization of purified linear viral DNA [1]	formation of circular viral DNA species ([2]; 1 mM, 37° C., 45 min, no target DNA)	1-LTR circle formation ([2]; 5 mM ATP)	formation of 2-LTR circles ([2]; 5 mM ATP)	ATP concentration of peak 1-LTR circle formation ([2]; 37° C., 45 or 90 min) [mM]	optimal ATP concentration for formation of 2-LTR circles ([2]; 37° C., 45 or 90 min) [mM]	1-LTR [ATP] optimum ([2]; table) [mM]	Autointegration [ATP] optimum ([2]; table) [mM]	ability to substitute for ATP in formation of simple 2-LTR circles [1]	induction of 1-LTR circular form ([2]; 1 mM, 37° C., 45 min)	induction of 2-LTR circles ([2]; 1 mM, 37° C., 45 min)	1-LTR circles (restriction analysis) ([2]; 1 mM, 45 min)	origin of 2-LTR circles (SalI/PstI digestion) ([2]; 1 mM, 45 min)	simple 2-LTR circles (SalI/PstI digestion) ([2]; 1 mM, 45 min)	type of circular viral DNA formed ([2]; 1 mM, 45 min, restriction enzyme analysis)
Nc1ncnc2c1ncn2[C@@H]1O[C@H](COP(=O)(O)OP(=O)(O)OP(=O)(O)O)[C@@H](O)[C@H]1O [ATP, adenosine triphosphate]	The most abundant of the new DNA forms comigrated with the 1-LTR circular DNA molecules	a small amount of product migrating as 2-LTR circles could also be detected	New, slowly migrating DNA species were detected	formation of two viral DNA species that migrated more slowly than the linear form of viral DNA	considerable	completely inhibited	2	1	2	1	–	–	–	–	–	–	–
Nc1ncnc2c1ncn2[C@@H]1O[C@H](COP(=O)(O)OP(=O)(O)OP(O)(O)=S)[C@@H](O)[C@H]1O [ATPγS]	–	–	failed to induce the circularization of purified linear viral DNA	–	–	–	–	–	–	–	None of the other nucleoside triphosphates tested, nor ATPγS, was able to substitute for ATP	unable to induce detectable amounts of the 1-LTR circular forms	induced the formation of 2-LTR circles	no detectable 1-LTR circles	entirely the products of autointegration	absence of simple 2-LTR circles among the reaction products	exclusively of the 2-LTR type
